Experimental findings from patent US20050197336A1 (Miikana Therapeutics Corporation, priority 2004, published 2005) are described below.

This assay concerns MCF7 cells. Briefly: Whole cell cytotoxicity assay: Sulforhodamine B. The format is cell-based, human. To be noted: Homo sapiens; compound at 100 μM; MCF7 cell growth; 48 hours with drug; SRB staining. On the procedure:
The following procedure can be found on the Developmental Therapeutics Program NCI/NIH web site at http://dtp.nci.nih.gov/brancehes/btb/ivclsp.html.
1. Human tumor cell lines of HT29, A549 and MCF7 are grown in DMEM containing 10% fetal bovine serum and 2 mM L-glutamine. Cells are plated in a 96 well plate at a density of 5000 cells per well in 100 μL of growth medium and incubated at 37° C., 5% CO2, for 24 hours prior to the addition of experimental compounds.
2. Experimental drugs are solubilized in DMSO for a final concentration of 20 mM immediately prior to use. Drugs are further diluted in growth media for a total of nine drug concentrations and a growth control. At the 24 hour time point, one plate of cells is fixed in situ with TCA as a measurement of the cell population at time zero, or the time of drug addition.
3. The plates are further incubated with drug for an additional 48 hours.
4. The cells are fixed in situ by gently aspirating off the culture media and then adding 50 μL of ice cold 10% TCA per well and incubated at 4° C. for 60 minutes. The plates are washed with tap water five times and allowed to air dry for 5 minute.
5. 50 μL of a 0.4% (w/v) Sulforhodamine B solution in 1% (v/v) acetic acid is added per well and incubated for 30 minutes at room temperature.
6. Following staining, plates are washed five times with 1% acetic acid to remove any unbound dye and then allowed to air dry for 5 minutes.
7. Stain is solubilized with 100 μL of 10 mM Tris pH 10.5 per well and placed on an orbital rotator for 5 minutes.
8. Absorbance is read at 570 nm.
(In general: In SRB staining, fixed cells bind dye roughly in proportion to their protein.)
Consider `O=C(NO)c1cnc(N2CCN(S(=O)(=O)c3ccc(C(F)(F)F)cc3)CC2)s1` [Example 5, 2-[4-(4-trifluoromethyl-benzenesulfonyl)-piperazin-1-yl]-thiazole-5-carboxylic acid hydroxyamide], for which the inhibition (as a rule, the percentage by which the read-out fell short of the control) at 100 µM was 97.9%. `CC(=O)c1ccc(S(=O)(=O)N2CCN(c3ncc(C(=O)NO)s3)CC2)cc1` [Example 7, 2-[4-(4-acetyl-benzenesulfonyl)-piperazin-1-yl]-thiazole-5-carboxylic acid hydroxyamide] registered an inhibition at 100 µM of 83.3%.

Consider `O=C(NO)c1cnc(N2CCN(S(=O)(=O)c3ccc(Cl)c(Cl)c3)CC2)s1` [Example 15, 2-[4-(3,4-dichlorolphenylsulfonyl)-piperazin-1-yl]-thiazole-5-carboxylic acid hydroxyamide], for which the inhibition at 100 µM came out at 88.5%. To `O=C(NO)c1cnc(N2CCN(S(=O)(=O)c3ccccc3Cl)CC2)s1` [Example 17, 2-[4-(2-chlorophenalsulfonyl)-piperazin-1-yl]-thiazole-5-carboxylic acid hydroxyamide] belongs 97.8%; to `O=C(NO)c1cnc(N2CCN(S(=O)(=O)c3ccc4c(c3)CCO4)CC2)s1` [Example 42, 2-[4-(2,3-dihydrobenzofuransulfonyl)-piperazin-1-yl]-thiazole-5-carboxylic acid hydroxyamide], 90%; to `O=C(NO)c1cnc(N2CCN(S(=O)(=O)c3ccc4c(c3)OCCO4)CC2)s1` [Example 44, 2-[4-(3,4-benzodioxansulfonyl)-piperazin-1-yl]-thiazole-5-carboxylic acid hydroxyamide], 91.7%. `O=C(NO)c1cnc(N2CCN(S(=O)(=O)c3cc(F)cc(F)c3)CC2)s1` [Example 52, 2-[4-(3,5-difluorophenylsulfonyl)-piperazin-1-yl]-thiazole-5-carboxylic acid hydroxyamide] registered an inhibition at 100 µM of 97.3%. `O=C(NO)c1cnc(N2CCN(S(=O)(=O)c3ccc(Cl)cc3)CC2)s1` [Example 54, 2-[4-(chlorophenalsulfonyl)-piperazin-1-yl]-thiazole-5-carboxylic acid hydroxyamide] yielded an inhibition at 100 µM of 97.1%. With `O=C(NO)c1cnc(N2CCN(S(=O)(=O)c3ccc(-c4ccc[nH]4)cc3)CC2)s1` [Example 67, 2-(4-{[4-(1H-pyrrol-2-yl)phenyl]sulfonyl}piperazin-1-yl)-1,3-thiazole-5-carboxylic acid hydroxyamide] the figure was 98%; with `O=C(NO)c1cnc(N2CCN(S(=O)(=O)c3ccc(-c4ccc(C(=O)N5CCOCC5)cc4)cc3)CC2)s1` [Example 69, 2-[4-(4′-(morpholin-4-ylcarbonyl)-1,1′-biphenylsulfonyl)piperazin-1-yl]-1,3-thiazole-5-carboxylic acid hydroxyamide], 87.7%. To `CS(=O)(=O)Nc1ccc(-c2ccc(S(=O)(=O)N3CCN(c4ncc(C(=O)NO)s4)CC3)cc2)cc1` [Example 70, 2-[4-(4′-methylsulfonylamino-1,1′-biphenylsulfonyl)piperazin-1-yl]-1,3-thiazole-5-carboxylic acid hydroxyamide] belongs 83.6%. With `CN(C)c1cccc(-c2ccc(S(=O)(=O)N3CCN(c4ncc(C(=O)NO)s4)CC3)cc2)c1` [Example 71, 2-[4-(3′-(dimethylamino)-1,1′-biphenylsulfonyl)piperazin-1-yl]-1,3-thiazole-5-carboxylic acid hydroxyamide] the figure was 97.2%; with `CN(C)CCN(C)Cc1cccc(-c2ccc(S(=O)(=O)N3CCN(c4ncc(C(=O)NO)s4)CC3)cc2)c1` [Example 85, 2-{4-[3′-{[(2-(dimethylamino)ethyl)(methyl)amino]methyl}-1,1′-biphenylsulfonyl]piperazin-1-yl}-1,3-thiazole-5-carboxylic acid hydroxyamide], 97.5%.
